Each structure is given as a SMILES string. Like-named read-outs stand apart in the source and are kept apart here.

As usually defined, the IC50 is the midpoint of a concentration-inhibition curve. By EC50 is commonly meant the midpoint of the concentration-response curve.

The target of one series is SARS-CoV-2 3CL-protease (Severe acute respiratory syndrome coronavirus 2 (2019-nCoV) (SARS-CoV-2), UniProt P0DTD1). Nature of the series: biochemical.
Series [1] has as its system 229E human corona virus (hCoV). The series can be described thus: 229E Cellular Assay (MRC5), live virus assay, ATPlite. Conditions: read-out: EC50 (229E). It counts as cell-based, hCoV-229E. (In general: ATP-based viability assays read luminescence as a measure of living cells.)
A further series has as its system SARS-CoV-2 USA-WA1/2020. The series can be described thus: SARS-CoV-2 Cellular Assay (Vero 76), inhibition of CPE, neutral red. It is filed as cell-based. To be noted: Severe acute respiratory syndrome coronavirus 2, 144 h; Vero 76 cells infected with SARS-CoV-2 USA-WA1/2020, day 6, neutral red CPE.
The nature of the next series: in vitro. Conditions: African green monkey.
Setting [2] is: recombinant SARS-CoV-2 3CL-protease 10 nM, 30 min preincubation, read-out: FRET IC50.
[3] abbreviates: Human coronavirus 229E, MRC5, 144 h, MRC-5 cells, hCoV-229E MOI 0.05, 6 days, ATPlite.

Regarding `CC(C)C[C@H]1C(=O)N2C[C@]3(C[C@H]2C#N)C(=O)Nc2ccc(cc23)CCCCCN1C(=O)c1cnn(C(C)(C)C)c1` [Example 17], the IC50 at SARS-CoV-2 3CL-protease (setting [2]) is less than 100 nM. Besides, the EC50 in series [1] (setting [3]) is less than 100 nM.

Take `CC(C)C[C@H]1C(=O)N2C[C@]3(C[C@H]2C#N)C(=O)Nc2ccc(cc23)CCCCCN1C(=O)C(=O)NC1(c2ccc(F)cc2F)CC1` [Example 24]: the IC50 on SARS-CoV-2 3CL-protease (setting [2]) was less than 100 nM. For the same molecule, in series [1] (setting [3]), the EC50 is less than 100 nM.

Turning to `CCCC[C@H]1C(=O)N2C[C@]3(C[C@H]2C#N)C(=O)Nc2ccc(cc23)CCCCCN1C(=O)c1cc2c(F)cc(F)c(F)c2[nH]1` [Example 19], on SARS-CoV-2 3CL-protease (setting [2]), the IC50 is less than 100 nM. Further, the EC50 in series [1] (setting [3]) was less than 100 nM.

On to `CC(C)C[C@H]1C(=O)N2C[C@]3(C[C@H]2C#N)C(=O)Nc2ccc(cc23)CCCCCN1C(=O)c1cnn(-c2ccccc2C(F)(F)F)c1` [Example 21], for which the IC50 on SARS-CoV-2 3CL-protease (setting [2]) was less than 100 nM. Further, the 50% effective concentration (EC50) in series [1] (setting [3]) was less than 100 nM.

With `CC(C)C[C@H]1C(=O)N2C[C@]3(C[C@H]2C#N)C(=O)Nc2ccc(cc23)C(O)CCCCN1C(=O)c1cc2c(F)cc(F)cc2[nH]1` (stereo partly shown) [Example 26], the half-maximal inhibitory concentration (IC50) at SARS-CoV-2 3CL-protease (setting [2]) is less than 100 nM. Further, in series [1] (setting [3]), the half-maximal effective concentration (EC50) is less than 100 nM.

In the case of `CC(C)C[C@H]1C(=O)N2C[C@]3(C[C@H]2C#N)C(=O)Nc2ccc(cc23)CCCCCN1C(=O)c1cc2c(F)cc(F)cc2[nH]1` [Example 4], at SARS-CoV-2 3CL-protease (setting [2]), the IC50 was less than 100 nM. The EC50 in series [1] (setting [3]) was less than 100 nM; with SARS-CoV-2 USA-WA1/2020, less than 1000 nM. Further, the CC50 in the series “in vitro” lay within 1000 to 50000 nM.

On to `CC(C)C[C@H]1C(=O)N2C[C@]3(C[C@H]2C#N)C(=O)Nc2ccc(cc23)CCCCCN1C(=O)c1cn(C2CCC2)nn1` [Example 12], for which the IC50 at SARS-CoV-2 3CL-protease (setting [2]) was less than 100 nM. The EC50 in series [1] (setting [3]) is less than 100 nM.

In turn, `CC(C)C[C@H]1C(=O)N2C[C@]3(C[C@H]2C#N)C(=O)Nc2ccc(cc23)CCCCCN1C(=O)c1nnc(-c2ccccc2)[nH]1` [Example 13] displayed an IC50 against SARS-CoV-2 3CL-protease of 100 to 1000 nM. In addition, in series [1] (setting [3]), the EC50 was 100 to 1000 nM.

Turning to `CC(C)C[C@H]1C(=O)N2C[C@]3(C[C@H]2C#N)C(=O)Nc2ccc(cc23)CCCCCN1C(=O)c1cn(-c2ccccc2)nn1` [Example 7], the IC50 on SARS-CoV-2 3CL-protease (setting [2]) was less than 100 nM. The figures for the EC50 (in series [1] (setting [3]); in the series with SARS-CoV-2 USA-WA1/2020) were less than 100 nM and less than 1000 nM, respectively. Also, the CC50 in the series “in vitro” was 1000 to 50000 nM.

On to `CC(C)(C)C[C@H]1C(=O)N2C[C@]3(C[C@H]2C#N)C(=O)Nc2ccc(cc23)CCCCCN1C(=O)c1cc2c(F)cc(F)cc2[nH]1` [Example 20], for which, on SARS-CoV-2 3CL-protease (setting [2]), the 50% inhibitory concentration (IC50) was less than 100 nM. Besides, in series [1] (setting [3]), the EC50 is less than 100 nM.

Regarding `CC(C)C[C@H]1C(=O)N2C[C@]3(C[C@H]2C#N)C(=O)Nc2ccc(cc23)CCCCCN1C(=O)OCc1ccccc1` [Example 2], on SARS-CoV-2 3CL-protease (setting [2]), the IC50 is less than 100 nM. Besides, in series [1] (setting [3]), the EC50 lay within 100 to 1000 nM.

Take `CC(C)C[C@H]1C(=O)N2C[C@]3(C[C@H]2C#N)C(=O)Nc2ccc(cc23)C(=O)CCCCN1C(=O)c1cc2c(F)cc(F)cc2[nH]1` [Example 27]: the IC50 on SARS-CoV-2 3CL-protease (setting [2]) was less than 100 nM. The EC50 in series [1] (setting [3]) was less than 100 nM.

For the molecule `CC(C)C[C@H]1C(=O)N2C[C@]3(C[C@H]2C#N)C(=O)Nc2ccc(cc23)OCCCCN1C(=O)C(=O)NC1(c2ccc(F)cc2F)CC1` [Example 29], on SARS-CoV-2 3CL-protease (setting [2]), the IC50 was less than 100 nM.

In the case of `N#C[C@@H]1C[C@]23CN1C(=O)[C@H](Cc1ccccc1)N(C(=O)c1cc4c(F)cc(F)cc4[nH]1)CCCCCc1ccc(c2c1)NC3=O` [Example 9], the IC50 at SARS-CoV-2 3CL-protease (setting [2]) is less than 100 nM. Further, the results for the concentration for a half-maximal effect (EC50) (in series [1] (setting [3]); with SARS-CoV-2 USA-WA1/2020) were less than 100 nM and less than 1000 nM, respectively. Moreover, the CC50 in the series “in vitro” lay within 1000 to 50000 nM.

As to `CC(C)C[C@H]1C(=O)N2C[C@]3(C[C@H]2C#N)C(=O)Nc2ccc(cc23)CCCCCN1C(=O)c1cnn(-c2ccc(C(F)(F)F)cc2)c1` [Example 18], the IC50 on SARS-CoV-2 3CL-protease (setting [2]) is less than 100 nM. Moreover, the EC50 in series [1] (setting [3]) was less than 100 nM.

On to `CC(C)C[C@H]1C(=O)N2C[C@]3(C[C@H]2C#N)C(=O)Nc2ccc(cc23)CCCCCN1C(=O)c1cnn(-c2ccc(F)cc2F)c1` [Example 23], for which the IC50 at SARS-CoV-2 3CL-protease (setting [2]) is less than 100 nM. Moreover, the EC50 in series [1] (setting [3]) was less than 100 nM.

With `CCCC[C@H]1C(=O)N2C[C@]3(C[C@H]2C#N)C(=O)Nc2ccc(cc23)CCCCCN1C(=O)c1cc2c(F)cc(F)cc2[nH]1` [Example 15], the IC50 on SARS-CoV-2 3CL-protease (setting [2]) was less than 100 nM. In addition, the EC50 in series [1] (setting [3]) is less than 100 nM.

Consider `N#C[C@@H]1C[C@]23CN1C(=O)[C@H](Cc1ccccc1)N(C(=O)c1cn(-c4ccc(F)cc4)nn1)CCCCCc1ccc(c2c1)NC3=O` [Example 10], for which the IC50 on SARS-CoV-2 3CL-protease (setting [2]) is less than 100 nM. This molecule also had an EC50 with SARS-CoV-2 USA-WA1/2020 of less than 1000 nM. In “in vitro”, the CC50 lay within 1000 to 50000 nM.

With `CCCC[C@H]1C(=O)N2C[C@]3(C[C@H]2C#N)C(=O)Nc2ccc(cc23)CCCCCN1C(=O)c1cn(-c2cc(F)c(F)cc2F)nn1` [Example 16], the 50% inhibitory concentration (IC50) at SARS-CoV-2 3CL-protease (setting [2]) is less than 100 nM. In addition, the EC50 in series [1] (setting [3]) is less than 100 nM.

Take `CC(C)C[C@H]1C(=O)N2C[C@]3(C[C@H]2C#N)C(=O)Nc2ccc(cc23)CCCCCN1C(=O)c1nnn(-c2ccccc2)n1` [Example 11]: the concentration for half-maximal inhibition (IC50) at SARS-CoV-2 3CL-protease (setting [2]) was less than 100 nM. Besides, the EC50 in series [1] (setting [3]) fell in the range of 100 to 1000 nM.

For the molecule `CC(C)C[C@H]1C(=O)N2C[C@]3(C[C@H]2C#N)C(=O)Nc2ccc(cc23)CCCCCN1C(=O)c1cnn(-c2ccc(Cl)cc2Cl)c1` [Example 25], the IC50 at SARS-CoV-2 3CL-protease (setting [2]) was less than 100 nM.

`CC(C)C[C@H]1C(=O)N2C[C@]3(C[C@H]2C#N)C(=O)Nc2ccc(cc23)CCCCCCN1C(=O)c1cc2c(F)cc(F)cc2[nH]1` [Example 8]: the IC50 at SARS-CoV-2 3CL-protease (setting [2]) fell in the range of 100 to 1000 nM. The EC50 in series [1] (setting [3]) fell in the range of 100 to 1000 nM.

For `CC(C)C[C@H]1C(=O)N2C[C@]3(C[C@H]2C#N)C(=O)Nc2ccc(cc23)/C=C\CCN1C(=O)OCc1ccccc1` [Example 3], the IC50 at SARS-CoV-2 3CL-protease (setting [2]) is less than 100 nM. The EC50 in series [1] (Human coronavirus 229E, MRC5, 144 h) was 100 to 1000 nM.

`CC(C)C[C@H]1C(=O)N2C[C@]3(C[C@H]2C#N)C(=O)Nc2ccc(cc23)CCCCCN1C(=O)c1cn(C2CC2)nn1` [Example 14]: the IC50 on SARS-CoV-2 3CL-protease (setting [2]) is less than 100 nM. Moreover, the concentration giving a half-maximal response (EC50) in series [1] (setting [3]) was less than 100 nM; in the series with SARS-CoV-2 USA-WA1/2020, less than 1000 nM. The CC50 in “in vitro” was in the range of 1000 to 50000 nM.

As to `CC(C)C[C@H]1C(=O)N2C[C@]3(C[C@H]2C#N)C(=O)Nc2ccc(cc23)CCCCCN1C(=O)c1cc2c(F)cc(F)c(F)c2[nH]1` [Example 5], the IC50 at SARS-CoV-2 3CL-protease (setting [2]) is less than 100 nM. Also, the EC50 in series [1] (setting [3]) was less than 100 nM; with SARS-CoV-2 USA-WA1/2020, less than 1000 nM. Besides, the CC50 in the series “in vitro” lay within 1000 to 50000 nM.

On to `CC(C)C[C@H]1C(=O)N2C[C@]3(C[C@H]2C#N)C(=O)Nc2ccc(cc23)C=CCCCN1C(=O)OCc1ccccc1` [Example 1], for which the 50% inhibitory concentration (IC50) on SARS-CoV-2 3CL-protease (setting [2]) is less than 100 nM. The EC50 in series [1] (MRC-5 cells, hCoV-229E MOI 0.05, 6 days, ATPlite) fell in the range of 100 to 1000 nM.

`CC(C)C[C@H]1C(=O)N2C[C@]3(C[C@H]2C#N)C(=O)Nc2ccc(cc23)CCCCCN1C(=O)c1cc2ccc(C(F)(F)F)cc2[nH]1` [Example 6]: the IC50 on SARS-CoV-2 3CL-protease (setting [2]) lay within 100 to 1000 nM. The concentration giving a half-maximal response (EC50) in series [1] (setting [3]) was less than 100 nM.

With `CC(C)C[C@H]1C(=O)N2C[C@]3(C[C@H]2C#N)C(=O)Nc2ccc(cc23)OCCCCN1C(=O)c1cc2c(F)cc(F)cc2[nH]1` [Example 28], the IC50 at SARS-CoV-2 3CL-protease (setting [2]) was less than 100 nM. For the same molecule, the EC50 in series [1] (setting [3]) was less than 100 nM.

As for `CC(C)C[C@H]1C(=O)N2C[C@]3(C[C@H]2C#N)C(=O)Nc2ccc(cc23)CCCCCN1C(=O)c1cnn(-c2ccccc2Cl)c1` [Example 22], on SARS-CoV-2 3CL-protease (setting [2]), the IC50 was less than 100 nM. Besides, the EC50 in series [1] (setting [3]) is less than 100 nM.

For the origin of these results see patent publication US12398147B2, “Macrocyclic spiropyrrolidine derived antiviral agents” (Enanta Pharmaceuticals, Inc., priority 2021, dated 2025).
